# Data published in US8168232B2, “Formulations and methods of using nitric oxide mimetics in cancer treatment” (priority 2000, dated 2012).
# System: uPAR protein
# Assay: Western blot analysis of uPAR protein in MDA-MB-231 breast carcinoma cells
# Assay type: cell-based, human
# Procedure: Following incubations, the cells were lysed using a buffer containing 40 mM HEPES pH 7.2, 100 mM NaCl, 20% glycerol, 0.1 mM EDTA pH 8.0, 0.2% Triton X-100, 1 mM DTT, and 2 mM PMSF. The lysates were then subjected to homogenization, DNA shearing (10 times with a 25⅝-gauge needle), boiling (5 minutes) and centrifugation (15 minutes, 14000 g). The supernatant was collected and stored at −80° C. until use. The samples were subjected to SDS-polyacrylamide gel electrophoresis (PAGE) and the resolved proteins were transferred to an Immobilon-P membrane using a wet transfer apparatus (Bio-Rad Laboratories, Mississauga, ON). The membranes were blocked overnight at 4° C. in a solution containing 1% PBS, and 0.01% Tween20 (PBS-T) as well as 5% casein. The blots were subsequently incubated for 1.5 hours with the monoclonal anti-uPAR antibody [MoAb 3937], followed by six 5 minute washes with PBS-T. The membranes were then incubated with a horseradish peroxidase labeled goat anti-mouse IgG secondary antibody for 1.5 hours. Following six additional 5 minute washes with PBS-T, the antigen was detected by enhanced chemiluminescence and the blots were exposed onto Dupont Reflection NEF film.
# Following incubation, the cells were lysed using a buffer containing 40 mM HEPES pH 7.2, 100 mM NaCl, 20% glycerol, 0.1 mM EDTA pH 8.0, 0.2% Triton X-100, 1 mM dithiothreitol (DTT), and 2 mM phenylmethyl sulfonyl fluoride (PMSF). The lysates were then subjected to homogenization, DNA shearing (10 times with a 25⅝-gauge needle), boiling (5 minutes) and centrifugation (15 minutes at 14,000×g). The supernatant was collected and stored at −80° C. until use. The samples were subjected to SDS-polyacrylamide gel electrophoresis (PAGE) and the resolved proteins were transferred to an Immobilon-P membrane (Millipore Corp., Bedford, Mass.) using a wet transfer apparatus (BioRad Laboratories, Mississauga, ON). The membranes were blocked overnight at 4° C. in a solution containing 1% PBS, and 0.01% Tween 20 (PBS-T) as well as 5% dry milk powder. The blots were subsequently incubated for 1.5 hours with the monoclonal anti-uPAR (MoAb 3937; American Diagnostica Inc., Greenwich, Conn.), or a polyclonal soluble guanylate cyclase (sGC) antiserum (Cayman Chemical, Ann Arbor, Mich.) followed by six 5-minute washes with PBS-T. Subsequently, the uPAR membranes were incubated for 1 hour with a horseradish peroxidase labelled goat anti-mouse IgG secondary antibody (Bio-Rad, Hercules, Calif.) and the sGC membranes were incubated for 1 hour with a goat anti-rabbit IgG horseradish peroxidase conjugate (VECTOR Laboratories Inc., Burlingame, Calif.). Following six additional 5-minute washes with PBS-T, the antigen was detected by enhanced chemiluminescence (Amersham Canada Inc., Mississauga, ON) and the blots were exposed onto Dupont Reflection NEF film.
smiles,measurement,setting,value
"O=[N+]([O-])OCC(CO[N+](=O)[O-])O[N+](=O)[O-] [GTN, glyceryl trinitrate]",uPAR protein levels vs 20% O2 alone,"combination of L-NMMA (0.5 mM) and GTN (0.1 nM), 20% O2",no significant increase
same,hypoxic upregulation of uPAR protein expression,"single doses GTN 1 pM, 1 nM and 0.1 μM, 24 hours 0.5% oxygen",prevent the upregulation
